The record followed here is patent publication EP2423181A1, “Multitarget substituted biphenyl diol derivatives” (PROUS INSTITUTE FOR BIOMEDICAL RESEARCH S.A., priority 2010, dated 2012).

The target of one data set is T1, 5-LO (Homo sapiens, UniProt P09917).
T1 construct: host or cells: Sf9 insect cells
T1 sequence (P09917 1-674): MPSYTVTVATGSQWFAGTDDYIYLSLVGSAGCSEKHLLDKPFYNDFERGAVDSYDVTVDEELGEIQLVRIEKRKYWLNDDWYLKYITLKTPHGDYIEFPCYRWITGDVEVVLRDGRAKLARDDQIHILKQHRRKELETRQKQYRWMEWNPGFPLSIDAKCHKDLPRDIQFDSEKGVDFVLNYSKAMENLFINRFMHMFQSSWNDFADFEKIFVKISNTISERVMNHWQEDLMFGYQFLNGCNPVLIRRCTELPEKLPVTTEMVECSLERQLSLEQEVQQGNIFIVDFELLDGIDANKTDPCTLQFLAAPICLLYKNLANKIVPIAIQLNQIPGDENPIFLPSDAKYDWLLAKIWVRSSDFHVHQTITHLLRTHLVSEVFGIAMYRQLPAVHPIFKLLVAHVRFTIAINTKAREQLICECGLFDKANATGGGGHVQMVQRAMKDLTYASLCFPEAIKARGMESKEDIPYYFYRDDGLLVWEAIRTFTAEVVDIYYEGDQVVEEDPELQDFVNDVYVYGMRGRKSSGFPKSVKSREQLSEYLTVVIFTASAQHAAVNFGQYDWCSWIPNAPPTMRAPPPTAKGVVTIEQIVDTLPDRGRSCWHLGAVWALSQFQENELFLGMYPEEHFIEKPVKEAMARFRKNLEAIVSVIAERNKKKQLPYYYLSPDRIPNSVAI
The data set is described as follows: 5-Lipoxygenase inhibition (LTB4 enzyme immunoassay). The data set is classed as biochemical. The procedure: The 5-LO-inhibitory activity of compounds of the invention was determined using previously reported assays. Briefly, lipoxygenase activity was evaluated in human recombinant insect Sf9 cells using 3µM arachidonic acid as a substrate with a preincubation and incubation times of 15 and 5 min respectively at 25°C in a 50 mM Tris-HCl, pH 7.4, 2 mM CaCl2, 1 mM ATP. The quantification method used was enzyme immunoassay determination of LTB4 and the significance criteria were established with a response equal or different of the maximum stimulation or inhibition (Noguchi, M. et al., Eur J Biochem, 1994, 222(2), 285-292; Percival, M.D. et al., Eur J Biochem, 1992, 210(1), 109-117).

Data set [1] can be described thus: log D octanol/water distribution coefficient. The data set is classed as physicochemical. The text has this:
Lipophilicity has been correlated to various drug properties, affecting permeability, absorption, distribution, plasma protein binding, metabolism, elimination, and toxicity. In contrast to honokiol and magnolol, compounds claimed in the invention, and more particularly those wherein the nitrogen atom in the group -O-CH(phenyl)-(CH2)p-NH-R^3 is protonated and the compound further comprises a pharmaceutically acceptable counter-anion present an optimal log Doctanol/water (range 0-3), indicating good aqueous solubility, permeability, oral absorption, and blood-brain barrier penetration. Experimental studies in murine models have confirmed the results.
Absorption, distribution and metabolism studies in vitro with selected examples were performed in order to determine pharmacokinetic parameters such as permeability (or absorption constant), intrinsic clearance (or metabolic clearance), and bioavailability. Physicochemical properties such as water solubility, pKa, log P, and log Doctanol/water, and in vitro experimental studies such as permeability in Caco2 cells, and protein binding in the mouse, stability in murine microsomes, chemical stability at different pH and stability in plasma were evaluated for the pharmacokinetic prediction in mice.

A further data set concerns the target T2, EGFR (Homo sapiens, UniProt P00533).
T2 construct: EGF receptor tyrosin-protein kinase activity was assessed in human A431 cells; endogenous in cells; host or cells: human A431 cells
The data set is described as follows: EGF receptor tyrosine-protein kinase inhibition (ELISA of Poly[Glu:Tyr-P]). The data set is classed as biochemical. The procedure:
EGF receptor tyrosin-protein kinase activity was assessed in human A431 cells using as a substrate Poly(Glu:Tyr) at 10 µg/ml with a preincubation and incubation times of 15 and 60 min, respectively, at 25°C respectively in 50 mM HEPES pH 7.4, 20 mM MgCl2 and 0.2 mM Na3VO4. An ELISA quantification method of Poly[Glu:Tyr-P] was employed (Cheng, K. and Koland, J.G. J Biol Chem, 1996, 271, 311-318). Table 5. Inhibition of EGFR at 10 µM

A further data set relates to tumor lung A549. Put plainly: Tumor cell proliferation assay (alamarBlue). It is filed as cell-based. The note with it: Homo sapiens. Here is the method: (§1) Changes in cell proliferation were detected based on the ability of viable cells to cause alamarBlue® to change its oxidized (non-fluorescent, blue) to a reduced (fluorescent, red) form. The alamarBlue® reaction allows the quantification of cell proliferation and examination of the metabolic activity of viable cells. Test substances were examined for activity on the proliferation of human or murine tumor cell lines at assay concentrations from 0.01 to 100 µM.

For the next data set, the system named is tumor prostate LNCaP-FGC. The data set is described as follows: Tumor cell proliferation assay (alamarBlue). The note with it: Homo sapiens. The data set is classed as cell-based. Here is the method:
as §1

In a further data set the test system is tumor leukaemia K562. Put plainly: Tumor cell proliferation assay (alamarBlue). The data set is classed as cell-based. Conditions: Homo sapiens. The procedure:
as §1

In another data set the test system is tumor liver HepG2. The data set is described as follows: Tumor cell proliferation assay (alamarBlue). The data set is classed as cell-based. Conditions: Homo sapiens. The procedure: as §1
The mark [2] stands for this setting: 5-LO, at 10 µM, read-out: % Inhibition.
The mark [3] stands for this setting: EGFR, at 10 µM, read-out: % Inhibition.
Where [4] appears, read: tumor lung A549, read-out: IC50.
Setting [5] is: tumor prostate LNCaP-FGC, read-out: IC50.
Setting [6] is: tumor leukaemia K562, read-out: IC50.
[7] abbreviates: tumor liver HepG2, read-out: IC50.

Structures can show the parent of a compound that is named as a salt. Where two headings read alike, the source gives them in different places.

T2 sequence (P00533 25-1210): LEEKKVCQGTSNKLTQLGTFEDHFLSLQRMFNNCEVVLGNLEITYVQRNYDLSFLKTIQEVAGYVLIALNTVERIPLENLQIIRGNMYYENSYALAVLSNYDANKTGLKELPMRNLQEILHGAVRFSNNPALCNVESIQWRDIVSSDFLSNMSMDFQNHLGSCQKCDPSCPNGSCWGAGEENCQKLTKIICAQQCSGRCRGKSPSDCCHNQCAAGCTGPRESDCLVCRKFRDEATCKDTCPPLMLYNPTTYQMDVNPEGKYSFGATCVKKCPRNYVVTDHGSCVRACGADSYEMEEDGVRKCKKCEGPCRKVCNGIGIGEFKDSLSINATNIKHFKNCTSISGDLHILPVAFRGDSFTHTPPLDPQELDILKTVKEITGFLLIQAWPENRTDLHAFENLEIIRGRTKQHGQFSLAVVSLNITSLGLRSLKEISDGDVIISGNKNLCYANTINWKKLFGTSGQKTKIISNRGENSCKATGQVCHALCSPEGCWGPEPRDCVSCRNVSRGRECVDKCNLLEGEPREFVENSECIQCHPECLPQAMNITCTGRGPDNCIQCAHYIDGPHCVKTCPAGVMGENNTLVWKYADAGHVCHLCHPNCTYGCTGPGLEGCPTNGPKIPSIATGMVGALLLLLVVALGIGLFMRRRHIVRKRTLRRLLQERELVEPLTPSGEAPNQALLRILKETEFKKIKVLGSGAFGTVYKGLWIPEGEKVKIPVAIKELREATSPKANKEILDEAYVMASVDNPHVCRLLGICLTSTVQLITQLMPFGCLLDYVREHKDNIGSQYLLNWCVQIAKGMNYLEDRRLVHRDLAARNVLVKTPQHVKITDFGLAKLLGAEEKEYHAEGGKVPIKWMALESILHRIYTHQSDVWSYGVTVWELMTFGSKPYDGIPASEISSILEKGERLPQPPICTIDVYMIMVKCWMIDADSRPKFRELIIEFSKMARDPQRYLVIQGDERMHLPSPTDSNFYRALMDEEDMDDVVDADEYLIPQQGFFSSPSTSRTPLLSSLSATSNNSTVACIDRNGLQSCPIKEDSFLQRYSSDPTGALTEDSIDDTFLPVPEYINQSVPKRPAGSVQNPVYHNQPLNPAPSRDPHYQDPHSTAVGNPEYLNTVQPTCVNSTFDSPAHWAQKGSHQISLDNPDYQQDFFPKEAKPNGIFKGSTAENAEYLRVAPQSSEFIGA

`C=CCc1ccc(O)c(-c2ccc(OC(CCNC)c3ccccc3)c(CC=C)c2)c1` (stereo not drawn) [Example 5, 3',5-Diallvl-4'-13-(methylamino)-1-phenylpropoxy]biphenyl-2-ol hydrochloride]: the inhibition at 10 µM against 5-LO was 101%; against EGFR, 99%. The molecule also displayed a logDoctanol/water in data set [1] of 0.85. For the same molecule, the IC50 in the data set with tumor lung A549 (A549) worked out at 1.2 µM; in the data set on tumor prostate LNCaP-FGC it was 1.5 µM; with tumor leukaemia K562 (K562), 1.4 µM; in the data set on tumor liver HepG2 (HepG2), 1 µM.
Turning to `C=CCc1ccc(O)c(-c2cc(CC=C)ccc2OC(CCNC)c2ccccc2)c1.Cl` (stereo not drawn) [Example 1, 5,5'-Diallyl-2'-[3-(methylamino)-1-phenylpropoxy]biphenyl-2-ol hydrochloride], the values for the inhibition at 10 µM on 5-LO (setting [2]) and at EGFR (setting [3]) were 100% and 72%, respectively. Further, the logDoctanol/water in data set [1] came out at 1.31. The IC50 in the data set on tumor lung A549 (setting [4]) came to 5 µM; in the data set with tumor prostate LNCaP-FGC (setting [5]), 13 µM; in the data set with tumor leukaemia K562 (setting [6]), 1.9 µM; in the data set on tumor liver HepG2 (setting [7]), 1.4 µM.
As to `C=CCc1ccc(O)c(-c2ccc(O)c(CC=C)c2)c1` [Honokiol, reference compound], the results for the inhibition at 10 µM on 5-LO (setting [2]) and on EGFR (setting [3]) were 85% and 7%, respectively. This molecule also had a logDoctanol/water in data set [1] of 5.25. In addition, the IC50 came to 12 µM in the data set on tumor lung A549 (setting [4]), 16 µM in the data set on tumor prostate LNCaP-FGC (setting [5]), 16 µM in the data set on tumor leukaemia K562 (setting [6]) and 12 µM in the data set with tumor liver HepG2 (setting [7]).
